According to US5488060A, “Substituted thiadiazoles, compositions containing them and their use as antimicrobial and marine antifouling agents” (The Dow Chemical Company, priority 1994, dated 1996):
Converted amounts (≈) assume the structure as drawn. Like-named read-outs stand apart in the source and are kept apart here.

Legend:
Assay type in all cases: cell-based
[1] = tested on: Bacillus subtilis (Bs); assay: Minimum inhibitory concentration (MIC) in nutrient agar, Bacillus subtilis
Method in brief: (§1)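 Agar dilution; nutrient agar at pH 6.8 (neutral) and pH 8.2 (alkaline, tricine-buffered). Compound from 1% acetone/water stock, final 500–1.0 ppm. Inoculum 10^8 CFU/mL via Steer's replicator. 30° C, 48 h; growth/no growth read.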

[2] = tested on: Enterobacter aerogenes (Ea); assay: Minimum inhibitory concentration (MIC) in nutrient agar, Enterobacter aerogenes; conditions: Klebsiella aerogenes
Method in brief: as §1

[3] = tested on: Escherichia coli (Ec); assay: Minimum inhibitory concentration (MIC) in nutrient agar, Escherichia coli
Method in brief: as §1

[4] = tested on: Klebsiella pneumoniae (Kp); assay: Minimum inhibitory concentration (MIC) in nutrient agar, Klebsiella pneumoniae
Method in brief: as §1

[5] = tested on: Proteus vulgaris (Pv); assay: Minimum inhibitory concentration (MIC) in nutrient agar, Proteus vulgaris
Method in brief: as §1

[6] = tested on: Pseudomonas aeruginosa (PRD-10); assay: Minimum inhibitory concentration (MIC) in nutrient agar, Pseudomonas aeruginosa PRD-10
Method in brief: as §1

[7] = tested on: Pseudomonas aeruginosa (Pa); assay: Minimum inhibitory concentration (MIC) in nutrient agar, Pseudomonas aeruginosa; conditions: 30° C., 48 hours, read-out: Minimum Inhibitory Concentration, Pa
Method in brief: as §1

[8] = tested on: Salmonella choleraesuis (Se); assay: Minimum inhibitory concentration (MIC) in nutrient agar, Salmonella choleraesuis; conditions: Salmonella enterica
Method in brief: as §1

[9] = tested on: Staphylococcus aureus (Sa); assay: Minimum inhibitory concentration (MIC) in nutrient agar, Staphylococcus aureus
Method in brief: as §1

[10] = tested on: Aspergillus niger (An); assay: Minimum inhibitory concentration (MIC) in malt yeast agar, Aspergillus niger; conditions: pH 5.5; malt yeast agar, 30° C., 72 hours for fungi; read-out: Minimum Inhibitory Concentration, An
Method in brief: (§2)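 Fungal inocula from 7-day malt yeast agar cultures (30° C) were suspended in saline with octylphenoxy polyethoxy ethanol, diluted 1:9, and spotted onto malt yeast agar (pH 5.5) containing test compound at 0–500 ppm. Growth assessed after 72 hours at 30° C to give MIC.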

[11] = tested on: Candida albicans (Ca); assay: Minimum inhibitory concentration (MIC) in malt yeast agar, Candida albicans
Method in brief: (§3)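 Plates of pH 5.5 malt yeast agar carried test compound dispersed from a one percent acetone–water solution, final 500 to zero ppm. After diluted slant-culture suspensions were applied, plates were kept at 30 °C and examined at 72 h for fungi, 48 h for yeast.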

[12] = tested on: Penicillium chrysogenum (Pc); assay: Minimum inhibitory concentration (MIC) in malt yeast agar, Penicillium chrysogenum
Method in brief: as §2

[13] = tested on: Saccharomyces cerevisiae (Sc); assay: Minimum inhibitory concentration (MIC) in malt yeast agar, Saccharomyces cerevisiae; conditions: pH 5.5, malt yeast agar, 30° C., 48 hours for yeast, read-out: Minimum Inhibitory Concentration, SC
Method in brief: as §3

[14] = tested on: Trichoderma viride (Tv); assay: Minimum inhibitory concentration (MIC) in malt yeast agar, Trichoderma viride
Method in brief: as §2

[15] = tested on: Aureobasidium pullulan (Ap); assay: Minimum inhibitory concentration (MIC) in malt yeast agar, Aureobasidium pullulan; conditions: pH 5.5; malt yeast agar, 30° C.; read-out: Minimum Inhibitory Concentration, Ap
Method in brief: as §2

[16] = tested on: Fusarium oxysporum (Fo); assay: Minimum inhibitory concentration (MIC) in malt yeast agar, Fusarium oxysporum
Method in brief: as §2

[17] = 48 h, pH 8.2, read-out: Minimum Inhibitory Concentration, Bs
[18] = pH 6.8, nutrient agar, 30° C., 48 hours, read-out: Minimum Inhibitory Concentration, Bs
[19] = 48 h, pH 6.8, read-out: Minimum Inhibitory Concentration, Ea
[20] = 48 h, pH 8.2, read-out: Minimum Inhibitory Concentration, Ea
[21] = 48 h, pH 6.8, read-out: Minimum Inhibitory Concentration, Ec
[22] = 48 h, pH 8.2, read-out: Minimum Inhibitory Concentration, Ec
[23] = 48 h, pH 8.2, read-out: Minimum Inhibitory Concentration, Kp
[24] = pH 6.8, nutrient agar, 30° C., 48 hours, read-out: Minimum Inhibitory Concentration, Kp
[25] = 48 h, pH 6.8, read-out: Minimum Inhibitory Concentration, Pv
[26] = 48 h, pH 8.2, read-out: Minimum Inhibitory Concentration, Pv
[27] = 48 h, pH 8.2, read-out: Minimum Inhibitory Concentration, PRD
[28] = pH 6.8, nutrient agar, 30° C., 48 hours, read-out: Minimum Inhibitory Concentration, PRD
[29] = 48 h, pH 6.8, read-out: Minimum Inhibitory Concentration, SC
[30] = pH 6.8, nutrient agar, 30° C., 48 hours, read-out: Minimum Inhibitory Concentration, Sa
[31] = 48 h, pH 5.5, read-out: Minimum Inhibitory Concentration, Ca
[32] = pH 5.5, malt yeast agar, 30° C., 72 hours for fungi, read-out: Minimum Inhibitory Concentration, PC
[33] = 72 h, pH 5.5, read-out: Minimum Inhibitory Concentration, Tv
[34] = 48 h, pH 6.8, read-out: Minimum Inhibitory Concentration, PRD
[35] = 48 h, pH 8.2, read-out: Minimum Inhibitory Concentration, SC
[36] = 48 h, pH 8.2, read-out: Minimum Inhibitory Concentration, Sa
[37] = pH 5.5, malt yeast agar, 30° C., 48 hours for yeast, read-out: Minimum Inhibitory Concentration, Ca
[38] = pH 5.5, malt yeast agar, 30° C., 72 hours for fungi, read-out: Minimum Inhibitory Concentration, Tv
[39] = pH 5.5, malt yeast agar, 30° C., 72 hours for fungi, read-out: Minimum Inhibitory Concentration, Fo
[40] = pH 8.2, nutrient agar, 30° C., 48 hours, read-out: Minimum Inhibitory Concentration, Bs

SMILES | MIC [1, 18] [µg/mL] | MIC [2, 19] [µg/mL] | MIC [2, 20] [µg/mL] | MIC [3, 21] [µg/mL] | MIC [3, 22] [µg/mL] | MIC [4, 23] [µg/mL] | MIC [4, 24] [µg/mL] | MIC [5, 25] [µg/mL] | MIC [5, 26] [µg/mL] | MIC [6, 27] [µg/mL] | MIC ([7]; pH 6.8, nutrient agar) [µg/mL] | MIC ([7]; pH 8.2, nutrient agar) [µg/mL] | MIC [8, 29] [µg/mL] | MIC [9, 30] [µg/mL] | MIC [10] [µg/mL] | MIC [12, 32] [µg/mL] | MIC [13] [µg/mL] | MIC [15] [µg/mL] | MIC [8, 35] [µg/mL] | MIC [9, 36] [µg/mL] | further results
Cc1ccc(-c2nsnc2SCSC#N)cc1 [Example XXVII, 4-(4-Methylphenyl)-3-thiocyanatomethylthio-1,2,5-thiadiazole] | 25 (≈ 89.5 µM) | 500 (≈ 1790 µM) | 500 (≈ 1790 µM) | 500 (≈ 1790 µM) | 500 (≈ 1790 µM) | 500 (≈ 1790 µM) | 500 (≈ 1790 µM) | 500 (≈ 1790 µM) | 500 (≈ 1790 µM) | 500 (≈ 1790 µM) | 500 (≈ 1790 µM) | 500 (≈ 1790 µM) | 500 (≈ 1790 µM) | 250 (≈ 895 µM) | 9 (≈ 32.2 µM) | 9 (≈ 32.2 µM) | 9 (≈ 32.2 µM) | 9 (≈ 32.2 µM) | – | – | MIC [1, 17]: 25 µg/mL (≈ 89.5 µM); MIC [6, 28]: 250 µg/mL (≈ 895 µM); MIC ([8]; pH 8.2, nutrient agar, 30° C., 48 hours, read-out: Minimum Inhibitory Concentration, SC): 250 µg/mL (≈ 895 µM); MIC ([9]; pH 8.2, nutrient agar, 30° C., 48 hours, read-out: Minimum Inhibitory Concentration, Sa): 25 µg/mL (≈ 89.5 µM); MIC [11, 31]: 50 µg/mL (≈ 179 µM); MIC [14, 33]: 100 µg/mL (≈ 358 µM); MIC ([16]; 72 h, pH 5.5, read-out: Minimum Inhibitory Concentration, Fo): 25 µg/mL (≈ 89.5 µM)
N#CSCSc1nsnc1-c1ccc([N+](=O)[O-])cc1 [Example XXIX, 4-(4-Nitrophenyl)-3-thiocyanatomethylthio-1,2,5-thiadiazole] | 50 (≈ 161 µM) | 500 (≈ 1610 µM) | > 500 | 500 (≈ 1610 µM) | 500 (≈ 1610 µM) | > 500 | 500 (≈ 1610 µM) | 500 (≈ 1610 µM) | > 500 | > 500 | 500 (≈ 1610 µM) | > 500 | 500 (≈ 1610 µM) | 500 (≈ 1610 µM) | 9 (≈ 29 µM) | 9 (≈ 29 µM) | 9 (≈ 29 µM) | > 500 | > 500 | 500 (≈ 1610 µM) | MIC [1, 17]: 500 µg/mL (≈ 1610 µM); MIC [6, 34]: 500 µg/mL (≈ 1610 µM); MIC [11, 37]: 9 µg/mL (≈ 29 µM); MIC [14, 38]: 9 µg/mL (≈ 29 µM); MIC [16, 39]: 9 µg/mL (≈ 29 µM)
N#CSc1nsnc1-c1cccs1 [Example XIV, 4-(2-Thiophene)-3-thiocyanato-1,2,5-thiadiazole] | 25 (≈ 111 µM) | – | 500 (≈ 2220 µM) | 50 (≈ 222 µM) | 500 (≈ 2220 µM) | 500 (≈ 2220 µM) | 25 (≈ 111 µM) | – | 500 (≈ 2220 µM) | 500 (≈ 2220 µM) | 500 (≈ 2220 µM) | 500 (≈ 2220 µM) | – | 25 (≈ 111 µM) | < 10 | – | < 10 | < 10 | 500 (≈ 2220 µM) | 500 (≈ 2220 µM) | MIC [1, 40]: 100 µg/mL (≈ 444 µM); MIC ([2]; pH 6.8, nutrient agar, 30° C., 48 hours, read-out: Minimum Inhibitory Concentration, Ea): 100 µg/mL (≈ 444 µM); MIC ([5]; pH 6.8, nutrient agar, 30° C., 48 hours, read-out: Minimum Inhibitory Concentration, Pv): 50 µg/mL (≈ 222 µM); MIC [6, 34]: 500 µg/mL (≈ 2220 µM); MIC ([8]; pH 6.8, nutrient agar, 30° C., 48 hours, read-out: Minimum Inhibitory Concentration, SC): 50 µg/mL (≈ 222 µM); MIC [11, 31]: 25 µg/mL (≈ 111 µM); MIC ([12]; 72 h, pH 5.5, read-out: Minimum Inhibitory Concentration, PC): < 10 µg/mL; MIC [14, 33]: < 10 µg/mL; MIC [16, 39]: < 10 µg/mL
N#CSCSc1nsnc1-c1ccc(F)cc1 [Example XXI, 4-(4-Fluorophenyl)-3-thiocyanatomethylthio-1,2,5-thiadiazole] | 9 (≈ 31.8 µM) | 500 (≈ 1760 µM) | > 500 | 500 (≈ 1760 µM) | – | > 500 | 500 (≈ 1760 µM) | 500 (≈ 1760 µM) | > 500 | > 500 | – | > 500 | 500 (≈ 1760 µM) | 500 (≈ 1760 µM) | 9 (≈ 31.8 µM) | 9 (≈ 31.8 µM) | 9 (≈ 31.8 µM) | 9 (≈ 31.8 µM) | > 500 | > 500 | MIC [1, 40]: 100 µg/mL (≈ 353 µM); MIC ([3]; pH 8.2, nutrient agar, 30° C., 48 hours, read-out: Minimum Inhibitory Concentration, Ec): 250 µg/mL (≈ 882 µM); MIC [6, 28]: 250 µg/mL (≈ 882 µM); MIC [11, 37]: 9 µg/mL (≈ 31.8 µM); MIC [14, 38]: 25 µg/mL (≈ 88.2 µM); MIC [16, 39]: 9 µg/mL (≈ 31.8 µM)
